Values joined by “and” are separate entries in the source; they are usually repeats but may differ in a detail not shown here. Equal values may be shown once.
System: COR L88 complex tumor spheroid viability
Assay: Anticancer human tumor COR L88 cell line growth inhibition;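 further: compound exposure lasted 7 days before viability readout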;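 on viability, T/C: percent of DMSO vehicle-treated spheroids = 100%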
Conditions: for viability, T/C: stronger effect = lower value
Text: Multicellular complex tumor spheroid response to DNA repair inhibitors in combination with DNA-damaging drugs
This study explores the anticancer activities of DNA-damaging drugs and inhibitors of DNA damage repair, both as single agents and in combinations. Complex tumor spheroids comprised of malignant cells, endothelial cells and mesenchymal stem cells served as an in vitro model for human solid tumors. This model system incorporates physiologically relevant features and patient-derived or established malignant cell lines with clinically relevant genetic alterations from many tumor types. Twenty-six patient-derived or established malignant cell lines were evaluated representing sarcoma, melanoma, small cell lung cancer (SCLC), non-small cell lung cancer (NSCLC), as well as bladder, ovarian and pancreatic cancers. The concentration ranges selected for each drug and investigational agent were based upon clinically achievable concentrations if the clinical Cmax of the agent was known.
Compounds. The drugs and compounds olaparib (NSC753686), talazoparib (NSC767125), berzosertib (NSC777718), elimusertib (NSC800525), nedisertib (NSC802822), VX-984 (NSC792969), AZD-1390 (NSC803789), temozolomide (NSC362856), topotecan (NSC609699), trabectedin (NSC813783), staurosporine (NSC755774), and gemcitabine (NSC613327) were obtained from the National Cancer Institute (NCI) Developmental Therapeutics Program Chemical Repository. The FDA-approved anticancer drug set is available from the Developmental Therapeutics Program at https://dtp.cancer.gov/organization/dscb/obtaining/available_plates.htm. […] The stock solutions were prepared in dimethyl sulfoxide (DMSO, Sigma-Aldrich, St. Louis, MO, cat. D2650) at 400-fold the tested concentration and stored at -70 degrees C. Prior to their use, the stock solutions were diluted in fresh medium and the final DMSO concentration in the assay was 0.25% (v/v). All drugs and investigational agents were tested over a range starting from a high concentration at or near the clinical Cmax and decreasing in half-log increments. If the clinical Cmax for an agent had not been determined, the highest concentration tested was 10 microM.
Cell Lines. The patient-derived cancer cell (PDC) lines: 156681-154-R-J1-PDC, 283228-195-R-J1-PDC, 287954-098-R-J1-PDC, 292921-168-R-J2-PDC, 349418-098-R-PDC, 425362-245-T-J1-PDC, 556581-035-R-J1-PDC, and BL0293-F563-PDC were received from the NCI Patient-Derived Models Repository (PDMR, https://pdmr.cancer.gov). The established cell lines HS-SY-2 (RRID:CVCL_8719), MPNST, and SYO-1 (RRID:CVCL_7146) were obtained from the Sloan Kettering Institute. The alveolar soft parts sarcoma cell line ASPS-1 (RRID:CVCL_S738) was established at the NCI and grown from internal seed stocks. The following established cell lines were purchased from the American Type Culture Collection (ATCC, Manassas, VA): G-401 (ATCC, cat. CRL-1441, RRID:CVCL_0270), SW982 (ATCC, cat. HTB-93, RRID:CVCL_1734), VA-ES-BJ (ATCC, cat. CRL-2138, RRID:CVCL_1785), NCI-H719 (ATCC, cat. CRL-5837, RRID:CVCL_1582), NCI-H196 (ATCC, cat. CRL-5823, RRID:CVCL_1509), NCI-H841 (ATCC, cat. CRL-5845, RRID:CVCL_1595), NCI-H1618 (ATCC, cat. CRL-5879, RRID:CVCL_1480), NCI-H1876 (ATCC, cat. CRL-5902, RRID:CVCL_1503), DMS 114 (ATCC, cat. CRL-2066; RRID:CVCL_1174), NCI-H211 (ATCC, cat. CRL-5824; RRID:CVCL_1529), and SW 1271 (ATCC, cat. CRL-2177, RRID:CVCL_1716). The small cell lung cancer cell line COR-L88 was purchased from Sigma-Aldrich (cat. 92031917-1VL, RRID:CVCL_1141). The non-small cell lung cancer cell lines NCI-H226 (RRID:CVCL_1544) and NCI-H322M (RRID:CVCL_1557) were established at the NCI and grown from internal seed stocks. Pooled donor human umbilical vein endothelial cells (HUVEC, Lonza, cat. CC-2519) and human mesenchymal stem cells (hMSC, Lonza, cat. PT-2501) were purchased from Lonza (Walkersville, MD).
Cell Culture. All cells were maintained in an incubator at 37 degrees C and 5% CO2 with 95% humidity. […]

[1] = curve of first compound, second compound 1 µM
[2] = curve of first compound, second compound 3.16 µM
[3] = curve of first compound, second compound 10 µM
[4] = curve of first compound, second compound 31.6 µM
[5] = curve of first compound, second compound 100 µM
[6] = second compound 1 µM, first compound 0.0949 µM
[7] = second compound 1 µM, first compound 0.3 µM
[8] = second compound 1 µM, first compound 0.949 µM
[9] = second compound 1 µM, first compound 3 µM
[10] = second compound 3.16 µM, first compound 0.0949 µM
[11] = second compound 3.16 µM, first compound 0.3 µM
[12] = second compound 3.16 µM, first compound 0.949 µM
[13] = second compound 3.16 µM, first compound 3 µM
[14] = second compound 10 µM, first compound 0.0949 µM
[15] = second compound 10 µM, first compound 0.3 µM
[16] = second compound 10 µM, first compound 0.949 µM
[17] = second compound 10 µM, first compound 3 µM
[18] = second compound 31.6 µM, first compound 0.0949 µM
[19] = second compound 31.6 µM, first compound 0.3 µM
[20] = second compound 31.6 µM, first compound 0.949 µM
[21] = second compound 31.6 µM, first compound 3 µM
[22] = second compound 100 µM, first compound 0.0949 µM
[23] = second compound 100 µM, first compound 0.3 µM
[24] = second compound 100 µM, first compound 0.949 µM
[25] = second compound 100 µM, first compound 3 µM

For O=C(c1cc(Cc2n[nH]c(=O)c3ccccc23)ccc1F)N1CCN(C(=O)C2CC2)CC1 + Cn1nnc2c(C(N)=O)ncn2c1=O, the IC50 [1] was 21.3 µM, the IC50 [2] was 20.9 µM and the IC50 [3] was 9.36 µM. For the same compound, the IC50 [4] was 3.7 µM, the IC50 [5] was 0.263 µM and the viability, T/C [6] was 92.8%. The viability, T/C [7] was 92.8%, the viability, T/C [8] was 97.3% and the viability, T/C [9] was 78.4%. For the same compound, the viability, T/C (second compound 1 µM, first compound 9.49 µM) was 61%, the viability, T/C (second compound 1 µM, first compound 30 µM) was 45.4% and the viability, T/C [10] was 102%. It also gave a viability, T/C [11] of 93.6%, a viability, T/C [12] of 91.8% and a viability, T/C [13] of 86.5%. The viability, T/C (second compound 3.16 µM, first compound 9.49 µM) was 54.7%, the viability, T/C (second compound 3.16 µM, first compound 30 µM) was 47.9% and the viability, T/C [14] was 72.6%. It also gave a viability, T/C [15] of 83.1%, a viability, T/C [16] of 75.5% and a viability, T/C [17] of 64.2%. The viability, T/C (second compound 10 µM, first compound 9.49 µM) was 50.6%, the viability, T/C (second compound 10 µM, first compound 30 µM) was 45.1% and the viability, T/C [18] was 61.8%. The viability, T/C [19] was 58.1%, the viability, T/C [20] was 57.5% and the viability, T/C [21] was 49.5%. The viability, T/C (second compound 31.6 µM, first compound 9.49 µM) was 45.5%, the viability, T/C (second compound 31.6 µM, first compound 30 µM) was 41.2% and the viability, T/C [22] was 53.9%. The viability, T/C [23] was 48.4%, the viability, T/C [24] was 46.5% and the viability, T/C [25] was 43.7%. It also gave a viability, T/C (second compound 100 µM, first compound 9.49 µM) of 39% and a viability, T/C (second compound 100 µM, first compound 30 µM) of 37%.

[2H]c1nc(C)nc([2H])c1-c1cc(NC[C@@H](C)c2cccc3c(C(=O)NC)ccnc23)ncn1 + Cn1nnc2c(C(N)=O)ncn2c1=O showed an IC50 [1] of over 10 µM, an IC50 [2] of over 10 µM and an IC50 [3] of over 10 µM. It also gave an IC50 [4] of over 10 µM, an IC50 [5] of over 10 µM and a viability, T/C (second compound 1 µM, first compound 0.0316 µM) of 97.1%. For the same compound, the viability, T/C (second compound 1 µM, first compound 0.1 µM) was 98.5%, the viability, T/C (second compound 1 µM, first compound 0.316 µM) was 89.8% and the viability, T/C (second compound 1 µM, first compound 1 µM) was 93.3%. It also gave a viability, T/C (second compound 1 µM, first compound 3.16 µM) of 96%, a viability, T/C (second compound 1 µM, first compound 10 µM) of 97% and a viability, T/C (second compound 3.16 µM, first compound 0.0316 µM) of 94.5%. The viability, T/C (second compound 3.16 µM, first compound 0.1 µM) was 95.3%, the viability, T/C (second compound 3.16 µM, first compound 0.316 µM) was 105% and the viability, T/C (second compound 3.16 µM, first compound 1 µM) was 98.6%. The viability, T/C (second compound 3.16 µM, first compound 3.16 µM) was 102%, the viability, T/C (second compound 3.16 µM, first compound 10 µM) was 103% and the viability, T/C (second compound 10 µM, first compound 0.0316 µM) was 92.2%. For the same compound, the viability, T/C (second compound 10 µM, first compound 0.1 µM) was 93.3%, the viability, T/C (second compound 10 µM, first compound 0.316 µM) was 97.7% and the viability, T/C (second compound 10 µM, first compound 1 µM) was 88.7%. For the same compound, the viability, T/C (second compound 10 µM, first compound 3.16 µM) was 88.9%, the viability, T/C (second compound 10 µM, first compound 10 µM) was 98.7% and the viability, T/C (second compound 31.6 µM, first compound 0.0316 µM) was 80%. For the same compound, the viability, T/C (second compound 31.6 µM, first compound 0.1 µM) was 85.6%, the viability, T/C (second compound 31.6 µM, first compound 0.316 µM) was 75.9% and the viability, T/C (second compound 31.6 µM, first compound 1 µM) was 82.4%. For the same compound, the viability, T/C (second compound 31.6 µM, first compound 3.16 µM) was 82.2%, the viability, T/C (second compound 31.6 µM, first compound 10 µM) was 75.8% and the viability, T/C (second compound 100 µM, first compound 0.0316 µM) was 66%. It also gave a viability, T/C (second compound 100 µM, first compound 0.1 µM) of 66.6%, a viability, T/C (second compound 100 µM, first compound 0.316 µM) of 63.7% and a viability, T/C (second compound 100 µM, first compound 1 µM) of 69.5%. For the same compound, the viability, T/C (second compound 100 µM, first compound 3.16 µM) was 64.2% and the viability, T/C (second compound 100 µM, first compound 10 µM) was 65.8%.

In the case of COc1ccc([C@@H](O)c2cc(-c3ncnc4cc(N5CCOCC5)ccc34)c(F)cc2Cl)nn1, the viability, T/C (compound 0.0316 µM) is reported as 108% and 105% and 101%, the viability, T/C (compound 0.1 µM) is reported as 98.8% and 102% and 98.1% and the viability, T/C (compound 0.316 µM) is reported as 103% and 93.9% and 104%. The viability, T/C (compound 1 µM) was 76.1% and 83% and 81.6%, the viability, T/C (compound 3.16 µM) was 56% and 64.4% and 54.8% and the viability, T/C (compound 10 µM) was 33.7% and 39% and 36.1%. The IC50 (curve of compound) was 4.01 µM and 6.1 µM.

Cc1sc2c(c1C)C(c1ccc(Cl)cc1)=NC(CC(=O)Nc1ccc(O)cc1)c1nnc(C)n1-2 (configuration not stated) + Cn1nnc2c(C(N)=O)ncn2c1=O showed an IC50 [1] of 0.499 µM, an IC50 [2] of 0.624 µM and an IC50 [3] of 0.61 µM. The IC50 [4] was 0.785 µM, the IC50 [5] was 0.88 µM and the viability, T/C (second compound 1 µM, first compound 0.00949 µM) was 86.5%. It also gave a viability, T/C (second compound 1 µM, first compound 0.03 µM) of 94%, a viability, T/C [6] of 97.9% and a viability, T/C [7] of 63.2%. For the same compound, the viability, T/C [8] was 34.8%, the viability, T/C [9] was 22.4% and the viability, T/C (second compound 3.16 µM, first compound 0.00949 µM) was 98.8%. For the same compound, the viability, T/C (second compound 3.16 µM, first compound 0.03 µM) was 96.5%, the viability, T/C [10] was 100% and the viability, T/C [11] was 70.6%. The viability, T/C [12] was 38.6%, the viability, T/C [13] was 21.5% and the viability, T/C (second compound 10 µM, first compound 0.00949 µM) was 88.1%. It also gave a viability, T/C (second compound 10 µM, first compound 0.03 µM) of 94.1%, a viability, T/C [14] of 103% and a viability, T/C [15] of 64.7%. For the same compound, the viability, T/C [16] was 41.2%, the viability, T/C [17] was 18.8% and the viability, T/C (second compound 31.6 µM, first compound 0.00949 µM) was 89%. The viability, T/C (second compound 31.6 µM, first compound 0.03 µM) was 101%, the viability, T/C [18] was 104% and the viability, T/C [19] was 87.7%. The viability, T/C [20] was 42.7%, the viability, T/C [21] was 23.8% and the viability, T/C (second compound 100 µM, first compound 0.00949 µM) was 78.4%. For the same compound, the viability, T/C (second compound 100 µM, first compound 0.03 µM) was 85.4%, the viability, T/C [22] was 92.2% and the viability, T/C [23] was 88.1%. The viability, T/C [24] was 47.4% and the viability, T/C [25] was 28.2%.

— PubChem BioAssay AID1845201 (Molecular Pharmacology Branch, DTP, NCI, 2023)
